Results as given in US20070202503A1, “Pharmaceutical Composition Of (+)-Erythro-Mefloquine And Its Use” (priority 2004, published 2007).

How the values were obtained:
[1] = system: human neutrophil; settings: cited from earlier work
[2] = Adverse events in clinical study on a background of methotrexate therapy; assay type: in vivo, patients; settings: combination of (+)-erythro-mefloquine and methotrexate
From the text: The formulations were used on a background of methotrexate therapy.
This is shown in FIG. 2, a plot of TMD (mean score) against time (days); ♦ represents placebo, ▴ represents A, ▪ represents B and ★ represents C.

Row | Compound | effect on human neutrophil degranulation [1] | Adverse events compared with methotrexate alone [2]
1 | OC(c1cc(C(F)(F)F)nc2c(C(F)(F)F)cccc12)C1CCCCN1 (racemic) [Racemic mefloquine, mefloquine] | stimulates human neutrophil degranulation | 
2 | O[C@H](c1cc(C(F)(F)F)nc2c(C(F)(F)F)cccc12)[C@@H]1CCCCN1 [(+)-erythro-mefloquine] |  | lower adverse events than methotrexate alone
